Test results: PubChem BioAssay AID1963863 (Molecular Pharmacology Branch, DTP, NCI, 2024)

Test system: 931267-113-T-J1-PDC KRAS spheroid with HUVEC/MSC, viability
Experiment: Anticancer human tumor 931267-113-T-J1-PDC patient-derived colon adenocarcinoma cell line growth inhibition [KRAS2]
Conditions: for IC50: curve of first compound; for viability, T/C: stronger effect = lower value
Description: Multicellular complex tumor spheroid response to RAS pathway inhibitors in combination with a targeted agents in patient-derived cell lines with oncogenic KRAS variants from multiple cancer types
A high-throughput screen of multi-cell type tumor spheroids was designed to identify active combinations of targeted small molecules and KRAS pathway inhibitors. Complex spheroids include a stromal component modeled by human endothelial cells (HUVEC) and fibroblasts modeled by human mesenchymal stem cells (MSCs). The concentration ranges selected for each drug and investigational agent were based upon clinically achievable concentrations if the clinical Cmax of the agent was known.
Compounds. The drugs and investigational agents: BI-3406 (NSC825286), BAY-293 (NSC824723), batoprotafib (TNO155; NSC825523), sotorasib (AMG 510; NSC818433), MRTX1257 (NSC819558), elimusertib (BAY 1895344; NSC800525), molibresib (GSK525762; NSC774829), temuterkib (LY3214996; NSC803410), venetoclax (NSC766270), alisertib (NSC759677), olaparib (NSC753686), talazoparib (NSC767125), erdafitinib (NSC781556), ipatasertib (NSC767898), cabozantinib (NSC761068), nintedanib (NSC756659), abemaciclib (NSC768073), docetaxel (NSC628503), trametinib (NSC758246), and sapanisertib (NSC764658) were obtained from the National Cancer Institute (NCI) Developmental Therapeutics Program Chemical Repository. The FDA-approved anticancer drug set is available from the Developmental Therapeutics Program. […] The stock solutions were prepared in dimethyl sulfoxide (DMSO, Sigma-Aldrich, St. Louis, MO, cat. D2650) at 800-fold the tested concentration and stored at -70 degrees C prior to their use. All drugs and investigational agents were tested over a range starting from a high concentration at or near the clinical Cmax and decreasing in half-log increments. If the clinical Cmax for an agent had not been determined, the highest concentration tested was 10 microM.
Cell Culture. All cells were maintained in an incubator at 37 degrees C and 5% CO2 with 95% humidity. The PDC lines were cultured according to standard operating procedures established by the NCI PDMR (https://pdmr.cancer.gov/sops/default.htm). Briefly, all PDCs were thawed and cultured in Matrigel-coated flasks prepared with a working solution of 1X Ham's F-12 nutrient mix, without supplementation (Invitrogen, Waltham, MA, cat. 11765054), 100 U/mL penicillin-streptomycin (Invitrogen, cat. 15140122), and 2.5% Matrigel (Corning Inc., Corning, NY, cat. 354248) for the first three passages. All PDCs were cultured in complete DMEM/F-12 media containing advanced DMEM/F-12 (Invitrogen, cat. 12634028), 4.9% defined fetal bovine serum, heat inactivated (HyClone Laboratories Inc., Logan, UT, cat. SH30070.03HI), 389 ng/mL hydrocortisone (Sigma-Aldrich, cat. H4001), 9.7 ng/mL human EGF recombinant protein (Invitrogen, cat. PHG0313), 23.4 microg/mL adenine (Sigma-Aldrich, cat. A2786), 97.3 U/mL penicillin-streptomycin (Invitrogen, cat. 15140122), 1.9 mM L-glutamine (Invitrogen, cat. 25030081), and 9.7 microM Y-27632 dihydrochloride (Tocris Bioscience, Bristol, United Kingdom, cat. 1254). The PDCs were cultured in complete DMEM/F12 media without 9.7 microM Y-27632 dihydrochloride for at least two passages prior to the screen. The established cell line HOP-62 was cultured in RPMI 1640 medium, HEPES (Invitrogen, cat. 22400105) with 10% defined fetal bovine serum (HyClone Laboratories Inc., cat. SH30070.03) and 2 mM L-glutamine (Invitrogen, cat. 25030081). The pooled donor HUVEC were cultured in endothelial cell growth medium 2 (PromoCell, Heidelberg, Germany, cat. C-22011) and the hMSC were cultured in mesenchymal stem cell growth medium 2 (PromoCell, cat. C-28009). For all experiments, HUVEC and hMSC were used at passages </=5, while the malignant cell lines were used at passages </=15. […]

[1] = second compound 0.1 µM, first compound 0.0316 µM
[2] = second compound 0.1 µM, first compound 0.1 µM
[3] = second compound 0.1 µM, first compound 0.316 µM
[4] = second compound 0.1 µM, first compound 1 µM
[5] = second compound 0.1 µM, first compound 3.16 µM
[6] = second compound 0.1 µM, first compound 10 µM
[7] = second compound 0.316 µM, first compound 0.0316 µM
[8] = second compound 0.316 µM, first compound 0.1 µM
[9] = second compound 0.316 µM, first compound 0.316 µM
[10] = second compound 0.316 µM, first compound 1 µM
[11] = second compound 0.316 µM, first compound 3.16 µM
[12] = second compound 0.316 µM, first compound 10 µM
[13] = second compound 1 µM, first compound 0.0316 µM
[14] = second compound 1 µM, first compound 0.1 µM
[15] = second compound 1 µM, first compound 0.316 µM
[16] = second compound 1 µM, first compound 1 µM
[17] = second compound 1 µM, first compound 3.16 µM
[18] = second compound 1 µM, first compound 10 µM
[19] = second compound 3.16 µM, first compound 0.0316 µM
[20] = second compound 3.16 µM, first compound 0.1 µM
[21] = second compound 3.16 µM, first compound 0.316 µM
[22] = second compound 3.16 µM, first compound 1 µM
[23] = second compound 3.16 µM, first compound 3.16 µM
[24] = second compound 3.16 µM, first compound 10 µM
[25] = second compound 10 µM, first compound 0.0316 µM
[26] = second compound 10 µM, first compound 0.1 µM
[27] = second compound 10 µM, first compound 0.316 µM
[28] = second compound 10 µM, first compound 1 µM
[29] = second compound 10 µM, first compound 3.16 µM
[30] = second compound 10 µM, first compound 10 µM
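Further: compound exposure lasted 7 days before the readout.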
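Wherever viability, T/C is given: 100% = DMSO vehicle control viability.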

COC(=O)c1ccc2c(C(=Nc3ccc(N(C)C(=O)CN4CCN(C)CC4)cc3)c3ccccc3)c(O)[nH]c2c1 + C=CC(=O)N1CCN(c2nc(=O)n(-c3c(C)ccnc3C(C)C)c3nc(-c4c(O)cccc4F)c(F)cc23)C(C)C1
IC50 (second compound 0.1 µM): 1340 nM
IC50 (second compound 0.316 µM): 1080 nM
IC50 (second compound 1 µM): 1050 nM
IC50 (second compound 3.16 µM): 922 nM
IC50 (second compound 10 µM): 984 nM
viability, T/C [1]: 107%
viability, T/C [2]: 100%
viability, T/C [3]: 90.5%
viability, T/C [4]: 67%
viability, T/C [5]: 0.52%
viability, T/C [6]: 0.48%
viability, T/C [7]: 120%
viability, T/C [8]: 103%
viability, T/C [9]: 84.8%
viability, T/C [10]: 63.4%
viability, T/C [11]: 0.81%
viability, T/C [12]: 0.29%
viability, T/C [13]: 129%
viability, T/C [14]: 116%
viability, T/C [15]: 82.8%
viability, T/C [16]: 65.8%
viability, T/C [17]: 0.56%
viability, T/C [18]: 0.21%
viability, T/C [19]: 121%
viability, T/C [20]: 134%
viability, T/C [21]: 82.8%
viability, T/C [22]: 56.4%
viability, T/C [23]: 0.33%
viability, T/C [24]: 0.22%
viability, T/C [25]: 119%
viability, T/C [26]: 103%
viability, T/C [27]: 103%
viability, T/C [28]: 50%
viability, T/C [29]: 0.49%
viability, T/C [30]: 0.31%

O=C(c1cc(Cc2n[nH]c(=O)c3ccccc23)ccc1F)N1CCN(C(=O)C2CC2)CC1 + C=CC(=O)N1CCN(c2nc(=O)n(-c3c(C)ccnc3C(C)C)c3nc(-c4c(O)cccc4F)c(F)cc23)C(C)C1
IC50 (second compound 0.1 µM): > 10000 nM
IC50 (second compound 0.316 µM): > 10000 nM
IC50 (second compound 1 µM): > 10000 nM
IC50 (second compound 3.16 µM): > 10000 nM
IC50 (second compound 10 µM): > 10000 nM
viability, T/C [1]: 94.3%
viability, T/C [2]: 87%
viability, T/C [3]: 82.3%
viability, T/C [4]: 97.7%
viability, T/C [5]: 101%
viability, T/C [6]: 85.1%
viability, T/C [7]: 110%
viability, T/C [8]: 108%
viability, T/C [9]: 81.9%
viability, T/C [10]: 83.6%
viability, T/C [11]: 93.9%
viability, T/C [12]: 97.3%
viability, T/C [13]: 88%
viability, T/C [14]: 103%
viability, T/C [15]: 113%
viability, T/C [16]: 100%
viability, T/C [17]: 88.2%
viability, T/C [18]: 92.2%
viability, T/C [19]: 105%
viability, T/C [20]: 115%
viability, T/C [21]: 110%
viability, T/C [22]: 89.9%
viability, T/C [23]: 107%
viability, T/C [24]: 112%
viability, T/C [25]: 89.2%
viability, T/C [26]: 102%
viability, T/C [27]: 113%
viability, T/C [28]: 111%
viability, T/C [29]: 102%
viability, T/C [30]: 99.6%
